Our source for the EC50 values is patent US20260374754A1, “N-((ISOQUINOLIN-6-YL)METHYL)-1H-PYRAZOLE-4-CARBOXAMIDE DERIVATIVES AS PLASMA KALLIKREIN INHIBITORS FOR THE TREATMENT OF HEREDITARY ANGIODEMA” (Takeda Pharmaceutical Company Limited, priority 2022, published 2026).

Structures are written as SMILES. Where a name gives a salt, the structure may show the parent alone.

As usually defined, the EC50 is the concentration giving half of the maximal effect.

human activated kallikrein enzyme, sequence (P03952 391-638 limits assumed): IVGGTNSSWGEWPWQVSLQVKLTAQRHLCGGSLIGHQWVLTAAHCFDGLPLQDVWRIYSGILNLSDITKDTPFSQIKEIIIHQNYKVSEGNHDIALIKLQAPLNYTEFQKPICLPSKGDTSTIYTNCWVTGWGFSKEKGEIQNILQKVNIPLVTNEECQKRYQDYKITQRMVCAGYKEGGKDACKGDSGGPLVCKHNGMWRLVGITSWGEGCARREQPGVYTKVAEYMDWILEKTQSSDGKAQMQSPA
human activated kallikrein enzyme, sequence (P03952 20-390 partner limits assumed): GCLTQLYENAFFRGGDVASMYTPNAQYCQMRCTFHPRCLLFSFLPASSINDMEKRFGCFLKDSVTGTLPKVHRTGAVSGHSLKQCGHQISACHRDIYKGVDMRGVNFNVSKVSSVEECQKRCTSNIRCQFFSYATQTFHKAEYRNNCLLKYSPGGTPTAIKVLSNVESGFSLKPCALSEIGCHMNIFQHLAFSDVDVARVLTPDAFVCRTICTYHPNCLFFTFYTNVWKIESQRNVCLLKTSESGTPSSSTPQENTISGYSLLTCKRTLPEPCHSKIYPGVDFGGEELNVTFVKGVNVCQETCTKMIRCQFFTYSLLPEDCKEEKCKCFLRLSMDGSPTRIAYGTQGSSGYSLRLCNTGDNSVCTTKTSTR

The test concerns the target human activated kallikrein enzyme (Homo sapiens, UniProt P03952). The test is described as follows: Inhibition of human activated plasma kallikrein, fluorogenic PFR-AMC substrate, 500 pM enzyme format. Type of test: biochemical. Conditions: 500 pM activated kallikrein; 300 μM PFR-AMC; 30 min preincubation; 10 min room temperature; pH 7.5; read-out: Primary Dose Response Assay: Average EC50. Put shortly:
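500 pM activated kallikrein preincubated 30 min at room temperature with inhibitors in pH 7.5 Tris/EDTA/NaCl buffer with PEG-400 and Triton X-100. Reaction started with 300 μM PFR-AMC, run 10 min at room temperature; AMC fluorescence read at ex 380/em 460 nm.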
`Cc1cc2c(N)nccc2c(C)c1CNc1ncnc2c1nc(Cc1ccc3ncc(Cl)cc3c1)n2C` [Example 539, 6-(((8-((3-chloroquinolin-6-yl)methyl)-9-methyl-9H-purin-6-yl)amino)methyl)-5,7-dimethylisoquinolin-1-amine]: the EC50 fell in the range of 100 to 1000 nM.
The figure for `CNC(=O)Cc1ccc(Cn2cc(C(=O)NCc3c(C)cc4c(N)nccc4c3C)cn2)cc1` [Example 230, N-((1-amino-5,7-dimethylisoquinolin-6-y1)methy1)-1-(4-(2-(methylamino)-2-oxoethyl)benzyl)-1H-pyrazole-4-carboxamide] is below 1 nM; for `Cc1cc2c(N)nccc2c(C)c1CNc1cc(NCc2cc(C)c(OCc3ccccn3)c(C)c2)ncn1` [Example 353, N^4-((1-amino-5,7-dimethylisoquinolin-6-yl)methyl)-N^6-(3,5-dimethyl-4-(pyridin-2-ylmethoxy)benzyl)pyrimidine-4,6-diamine, formic acid salt] it is 10 to 100 nM; for `CCCCc1cc(COc2cc(NCc3c(C)cc4c(N)nccc4c3C)ncn2)cc2cc(Cl)c[n+]([O-])c12` [Example 399, 6-(((6-(((1-amino-5,7-dimethylisoquinolin-6-yl)methyl)amino)pyrimidin-4-yl)oxy)methyl)-8-butyl-3-chloroquinoline 1-oxide] it is 10 to 100 nM.
The figure for `Cc1cc2c(N)nccc2c(C)c1CNC(=O)c1cnn(Cc2sc3ccccc3c2Cl)c1` [Example 80, N-((1-amino-5,7-dimethylisoquinolin-6-yl)methyl)-1-((3-chlorobenzo[b]thiophen-2-yl)methyl)-1H-pyrazole-4-carboxamide] is 100 to 1000 nM; for `Cc1cc2c(N)nccc2c(C)c1CNC(=O)c1cnn(Cc2ccc(CC(=O)N(C)c3ccccc3)cc2)c1` [Example 228, N-((1-amino-5,7-dimethylisoquinolin-6-yl)methyl)-1-(4-(2-(methyl(phenyl)amino)-2-oxoethyl)benzyl)-1H-pyrazole-4-carboxamide] it is 1 to 10 nM.
The figure for `Cc1cc2c(N)nccc2c(C)c1CNc1ncccc1OCc1cn2cc(C3CC3)ccc2n1` [Example 289, 6-(((3-((6-cyclopropylimidazo[1,2-a]pyridin-2-yl)methoxy)pyridin-2-yl)amino)methyl)-5,7-dimethylisoquinolin-1-amine] is 100 to 1000 nM; for `Cc1ccc2nc(COc3cnnc(NCc4c(C)cc5c(N)nccc5c4C)c3)cn2c1` [Example 425, 5,7-dimethyl-6-(((5-((6-methylimidazo[1,2-a]pyridin-2-yl)methoxy)pyridazin-3-yl)amino)methyl)isoquinolin-1-amine] it is below 1 nM.
For the compound `Cc1cc2c(N)nccc2c(C)c1CNC(=O)c1cnn(Cc2cc3cc(C4CC4)ccn3n2)c1` [Example 121, N-((1-amino-5,7-dimethylisoquinolin-6-yl)methyl)-1-((5-cyclopropylpyrazolo[1,5-a]pyridin-2-yl)methyl)-1H-pyrazole-4-carboxamide], the half-maximal effective concentration (EC50) was below 1 nM.
On to `Cc1cc2c(N)nccc2c(C)c1CNC(=O)c1cnn(Cc2oc3ccccc3c2C)c1` [Example 47, N-((1-amino-5,7-dimethylisoquinolin-6-yl)methyl)-1-((3-methylbenzofuran-2-yl)methyl)-1H-pyrazole-4-carboxamide], for which the half-maximal effective concentration (EC50) lay in the range of 10 to 100 nM.
Next, `Cc1cc2c(N)nccc2c(C)c1CNc1cc(NCc2ccc3c(c2)OCCN3C)ncn1` [Example 326, N^4-((1-amino-5,7-dimethylisoquinolin-6-yl)methyl)-N^6-((4-methyl-3,4-dihydro-2H-benzo[b][1,4]oxazin-7-yl)methyl)pyrimidine-4,6-diamine, formic acid salt]: 1 to 10 nM.
The figure for `Cc1cc2c(N)nccc2c(C)c1CNc1cc(NCc2ccc3c(-n4ccccc4=O)cccc3c2)ncn1` [Example 245, 1-(6-(((6-(((1-amino-5,7-dimethylisoquinolin-6-yl)methyl)amino)pyrimidin-4-yl)amino)methyl)naphthalen-1-yl)pyridin-2(1H)-one] is below 1 nM; for `Cc1cc2c(N)nccc2c(C)c1CNC(=O)c1cnn(Cc2ccc(C3CCN(C)C3=O)cc2)c1` (centres unmarked) [Example I-475, N-((1-amino-5,7-dimethylisoquinolin-6-yl)methyl)-1-(4-(1-methyl-2-oxopyrrolidin-3-yl)benzyl)-1H-pyrazole-4-carboxamide] it is 1 to 10 nM; for `Cc1ccc2nc(Cn3cc(C(=O)N(C)Cc4c(C)cc5c(N)nccc5c4C)cn3)cn2c1` [Example 128, N-((1-amino-5,7-dimethylisoquinolin-6-yl)methyl)-N-methyl-1-((6-methylimidazo[1,2-a]pyridin-2-yl)methyl)-1H-pyrazole-4-carboxamide] it is 10 to 100 nM.
Next, `Cc1cc2c(N)nccc2c(C)c1CNc1nccc2c1cnn2Cc1cn2cc(C3CC3)ccc2n1` [Example 266]: 100 to 1000 nM; `Cc1ccnc(Cc2ccc(CNc3cc(NCc4c(C)cc5c(N)nccc5c4C)ncn3)cc2)c1` [Example 364, N^4-((1-amino-5,7-dimethylisoquinolin-6-yl)methyl)-N^6-(4-((4-methylpyridin-2-yl)methyl)benzyl)pyrimidine-4,6-diamine]: below 1 nM; `Cc1cc2c(N)nccc2c(C)c1CNC(=O)c1cnn(Cc2ccc3nccnc3c2)c1` [Example 79, N-((1-amino-5,7-dimethylisoquinolin-6-yl)methyl)-1-(quinoxalin-6-ylmethyl)-1H-pyrazole-4-carboxamide]: 1 to 10 nM.
For `Cc1cc2c(N)nccc2c(C)c1CNc1cc2c(ccn2Cc2ccc3ncccc3c2)cn1` [Example 528, 5,7-dimethyl-6-(((1-(quinolin-6-ylmethyl)-1H-pyrrolo[3,2-c]pyridin-6-yl)amino)methyl)isoquinolin-1-amine], the EC50 was above 1000 nM.
Next, `COc1ccc2nc(CNc3cc(NCc4c(C)cc5c(N)nccc5c4C)ncn3)ccc2c1` [Example 307, N^4-((1-amino-5,7-dimethylisoquinolin-6-yl)methyl)-N^6-((6-methoxyquinolin-2-yl)methyl)pyrimidine-4,6-diamine]: 10 to 100 nM; `Cc1cc2c(N)nccc2c(C)c1CNc1nccc(OCc2ccc(Cn3ccccc3=O)cc2)n1` [Example I-478, 1-(4-(((2-(((1-amino-5,7-dimethylisoquinolin-6-yl)methyl)amino)pyrimidin-4-yl)oxy)methyl)benzyl)pyridin-2(1H)-one]: 1 to 10 nM.
`Cc1cc2c(N)nccc2c(C)c1CNc1cc(OCc2ccccc2)cnn1` [Example 443, 6-(((5-(benzyloxy)pyridazin-3-yl)amino)methyl)-5,7-dimethylisoquinolin-1-amine]: the concentration giving a half-maximal response (EC50) fell in the range of 100 to 1000 nM.
On to `Cc1cc2c(N)nccc2c(C)c1CNc1cc2c(ccn2Cc2ccc3ncc(Cl)cc3c2)cn1` [Example 531, 6-(((1-((3-chloroquinolin-6-yl)methyl)-1H-pyrrolo[3,2-c]pyridin-6-yl)amino)methyl)-5,7-dimethylisoquinolin-1-amine], for which the EC50 was in the range of 10 to 100 nM.
The figure for `Cc1cc2c(N)nccc2c(C)c1CNc1cc(OCc2nc3cc(C4CC4)ccc3s2)ncn1` [Example 282, 6-(((6-((5-cyclopropylbenzo[d]thiazol-2-yl)methoxy)pyrimidin-4-yl)amino)methyl)-5,7-dimethylisoquinolin-1-amine] is 100 to 1000 nM.
